# Results taken from a melting point compilation (Tetko et al.; mined from patent text by program, amines drawn as free bases though some values may be those of a salt).
row,Structure (SMILES),melting point [°C]
1,CC(=O)c1c(O)cccc1OCC(O)COc1ccc(F)cc1 (centres undefined),111 to 113
2,COC(=O)CNc1cccc2c1C(=O)N(C1CCC(=O)NC1=O)C2=O (centres undefined),210 to 212
3,Cc1[nH]c(C#N)c(C)c1-c1nc2ccc(Oc3ccccc3)cc2[nH]1,278 to 280
4,O=C1CN(c2ccccc2)C(=O)N1C(=O)c1cccc(Oc2ccccc2)c1,157 to 158
5,CCCCN(C1=C(O)C[C@@](CCc2cccc(O)c2)(C2CCCC2)OC1=O)c1ccccc1,64 to 66
6,COC(O)c1ccc2c(c1)C(C(Cl)(Cl)Cl)OC(C(Cl)(Cl)Cl)O2 (centres undefined),123 to 125
7,CCCCc1ncc(/C=C(\Cc2ccc(N(C)C)cc2)C(=O)O)n1Cc1ccccc1Cl,171 to 172
8,Cc1cc(C#N)cc(C(=O)c2c(C(C)C)c(=O)[nH]c(=O)n2CC(C)C)c1,200 to 201
9,c1ccc(NCP2CN(c3ccccc3)CN(c3ccccc3)C2)cc1,96 to 97
10,Cc1cc(C)cc(-c2cn(C)cc(-c3ccccc3)c2=O)c1,148 to 150
11,CC(=O)N1CCCC2(Cc3cc([N+](=O)[O-])ccc3O2)C1 (centres undefined),165 to 167
12,CCCCCCCCCCCCCCCCCCSC(=O)Nc1ccc(NC(=O)NS(=O)(=O)c2ccc3ccccc3c2)cc1,193
13,NC(=O)c1cc(OCCNCC(O)COc2ccc(-c3nc(C(F)(F)F)c[nH]3)cc2)ccc1O (centres undefined),155 to 158
14,O=C(O)c1ccc(-c2nc(-c3ccc(C(F)(F)F)cc3)co2)cc1,258 to 259
15,CCC(C)(C)Nc1c(NCc2ccc(C)c(Cl)c2)c(=O)c1=O,261 to 263
16,Cc1ccc2cccc(OCc3c(Cl)ccc(S(=O)(=O)N(C)Cc4ccccc4)c3Cl)c2n1,154
17,[N-]=[N+]=NCc1ccc2nc[nH]c2c1,110 to 114
18,CC(C)(C)OC(=O)NCCNC(=O)c1cc(Br)ccn1,134
19,O=[N+]([O-])c1ccc(Oc2ccccc2)nc1,84 to 86
20,"CNC(=S)NS(=O)(=O)c1cc2c(cc1OC)OCCC2CNC(=O)c1cc(Cl)ccc1OC (single isomer, unassigned; (+))",201
21,CCOC(=O)c1cnc(S(=O)(=O)Cc2ccccc2)n1-c1c(CC)cccc1CC,62 to 66
22,Fc1ccc2nc(Cl)ccc2c1,99 to 101
23,CN(C)C1CCc2oc3ccc(NC(=O)c4ccc(F)cc4)cc3c2C1 (centres undefined),137 to 138

row,Structure (SMILES),melting point [°C]
1,COC(=O)CCc1c[nH]c2ccccc12,162 to 164
2,CC(=O)Nc1c(OC(C)=O)cc(C(C)(C)C)cc1[N+](=O)[O-],200 to 201
3,C=C(C)c1cnc(C2=NC(C)(C(C)C)C(=O)N2)c(C(=O)OC)c1 (centres undefined),90.5 to 92.5
4,C[C@@H](CN)CCC[C@@H](C)[C@H]1CC[C@H]2[C@@H]3CC=C4C[C@@H](O)CC[C@]4(C)[C@H]3CC[C@]12C,150 to 152
5,Cc1ccc(S(=O)(=O)N2CCCC2c2nnnn2[C@@](C)(Cc2ccc(N(C(=O)OC(C)(C)C)C(=O)C3CCNCC3)cc2)C(=O)O)cc1 (some centres undefined),180 to 189
6,Cc1ccc(NC(=O)C=Cc2ccccc2)cc1NC(=O)C=Cc1ccccc1,217 to 219
7,COC(=O)c1cncc(OCc2ccc(OCc3nc(-c4ccccc4)oc3C)cc2)c1,138 to 139
8,O=C(NCCSc1cccc2nccn12)c1ccccc1O,156 to 157
9,COc1cccc(N(C)C(=O)c2ncc(-c3cccc(C)c3)s2)c1,85
10,Oc1ccc(N2CCSCC2)cc1,156 to 158
11,CCOC(=O)c1[nH]nnc1Nc1ccccc1,129 to 130
12,CC(C)(C)c1ccc(CCC(C=O)CC2CCCCC2)cc1NC(=O)CC1c2ccccc2Oc2ccccc21 (centres undefined),117 to 118
13,CC(C)(C)NC(=O)N1CCn2c(Cl)c(-c3cccc(C#N)c3)c(C(N)=O)c2C1,192 to 195
14,COc1ccc(-c2ccc(C(=O)Nc3ccc4cc(CN5CCCCCC5)cnc4c3C)cc2)cc1,165 to 167
15,O=C1C(c2ccccc2)=C(c2ccc(Cl)cc2)C(=O)N1c1ccc(Cl)cc1,157
16,Cc1ccc(S(=O)(=O)N2[C@@H](C(=N)NO)CC[C@H]2c2ccc(F)cc2)cc1 (racemic),217
17,COCCn1nc2c3c(c(NCCNCCO)ccc31)C(=O)c1c(O)ccc(O)c1-2,174 to 178
18,O=C(O)Cc1cc(C(=O)c2ccc(Cl)cc2)sc1-c1ccccc1,142 to 143
19,Cc1ccc(N2CCN(c3ccc(C(C)(C)O)nc3-c3ccc(C(C)C)cc3)CC2)cc1,130 to 133
20,O=c1nc(-c2ccccn2)sc2ccc(F)cc12,240
21,CC(=O)N1CCN(CCN2C=Cc3cc(S(N)(=O)=O)sc3S2(=O)=O)CC1,180 to 183
22,CC(C)C(C)(C)C(O)C(Cc1ccc(Cl)cc1)n1cncn1 (centres undefined),106
23,CCCCn1nc(C(N)=O)cc1C,114

row,Structure (SMILES),melting point [°C]
1,CCOC(=O)c1cnn(-c2c(Cl)cc(C(F)(F)F)cc2Cl)c1C,61 to 62
2,Fc1ccc2ncn3ncnc3c2c1,193 to 195
3,C#CCOc1ccc(Br)cn1,58 to 60
4,CNC(=NS(C)(=O)=O)NCc1cccc(-c2csc(N=C(N)N)n2)n1,254 to 255
5,CN1CCC(C(=O)Nc2ccc(CN(C)C3CCOCC3)cc2)=Cc2cc(-c3ccc(OC(F)(F)F)cc3)ccc21,182 to 183
6,N#CCc1ccc(OCc2ccccc2)c2c1OCCO2,95
7,CS(=O)(=O)Nc1ccc(C(=O)O)c(Cl)c1,256 to 258
8,CC(C)Cn1c(CCCCNC(=O)Nc2ccccc2)nc2c(N)nc3ccccc3c21,113 to 115
9,O=C(O)c1ccc(C(=O)O)c(-c2nc3ccccc3s2)c1,287 to 288
10,COc1ccc(OCC(=O)N[C@@H](Cc2ccccc2)C(=O)CSCc2ccsc2)cc1,80 to 81
11,Cc1cc(NC(=O)c2cnoc2C2CC2)ccc1Br,133 to 135
12,CN(C)c1ccccc1SCc1noc(CSc2ccc(Br)cc2)n1,78
13,O=c1c(-c2ccccc2)c(Cn2cnc3ccccc32)oc2ccc(Br)cc12,192 to 197
14,O=C(O)CCCOc1ccc(C23CC4CC(CC(C4)C2)C3)cc1Cl,164 to 166
15,CC(=O)OCC(=O)C1(O)C(C)CC2C3CC(C)C4=CC(=O)C=CC4(C)C3=CCC21C (centres undefined),215 to 216
16,CN(C)S(=O)(=O)Cc1ccccc1S(N)(=O)=O,145 to 150
17,COC(=O)c1ccc2nc(SCCN3CCN(CC(=O)Nc4c(C(C)C)cccc4C(C)C)CC3)oc2c1C(=O)OC,186 to 187
18,CCCCCCCCCCCCCCCCCCOCC(COC(c1ccccc1)(c1ccccc1)c1ccccc1)OS(=O)(=O)c1ccc(C)cc1 (centres undefined),52 to 53
19,CCOP(=O)(CNC(=O)Nc1c(C(C)C)cccc1C(C)C)OCC,132 to 134
20,Cc1ccc2c(OCCCl)c3ccccc3c(OCCCl)c2c1,82 to 85
21,NS(=O)(=O)c1cc(Br)c2c(c1)S(=O)(=O)NC(C1CCCCC1)N2 (centres undefined),254 to 258
22,CCC(CC)(CCC#N)C(NC(=O)c1ccc(Cl)cc1)NC(=NC#N)Nc1cccnc1 (centres undefined),150 to 152
23,CC1(C)CN(c2ncc(C(=O)O)c(N)n2)C(=O)N1,290 to 291
